Assays:
Format in all cases: functional
Mus musculus [1] = organism: Mus musculus; test: Inhibitory effect on nitric oxide production in lipopolysaccharide activated mouse peritoneal macrophages at 10 uM
Mus musculus [2] = organism: Mus musculus; test: Inhibitory effect on nitric oxide production in lipopolysaccharide activated mouse peritoneal macrophages at 3 uM
Mus musculus [3] = organism: Mus musculus; test: Inhibitory concentration on nitric oxide production in lipopolysaccharide-activated mouse peritoneal macrophages

SMILES	IC50 (Mus musculus [3]) [µM]	inhibition at 10 µM (Mus musculus [1]) [%]	inhibition at 3 µM (Mus musculus [2]) [%]
CC(C)[C@@H]1CCC(=O)C2=C1[C@H](O)[C@](C)(O)CC2 [OXYPHYLLENODIOL A]	28		11.8
CNC(=N)NCCC[C@H](N)C(=O)O [TILARGININE]			2
CC(C)[C@H]1CCC(=O)C2=C1[C@H](O)[C@](C)(O)CC2 [OXYPHYLLENODIOL B]	> 100	-0.4	-4.2

Continued, in another order:

IC50 (Mus musculus [3]) [µM]	SMILES	inhibition at 10 µM (Mus musculus [1]) [%]	inhibition at 3 µM (Mus musculus [2]) [%]
35	C[C@@]12CCC(=O)C=C1[C@@](C)(O)[C@H](O)CC2 [OXYPHYLLENONE A]	-2.9	1.6
> 100	C[C@@]12CCC(=O)C=C1[C@](C)(O)[C@H](O)CC2 [OXYPHYLLENONE B]	0.4	-8.1

Reference: ChEMBL document CHEMBL1133921, “Absolute stereostructures of novel norcadinane- and trinoreudesmane-type sesquiterpenes with nitric oxide production inhibitory activity from Alpinia oxyphylla” (Bioorg Med Chem Lett, 2001)
